The values that follow are results of earlier work, collected in patent US20190142979A1, “CONTRAST MEDIUM AND METHODS INVOLVED IN PREPARATION FOR THE DETERMINATION OF PATENCY OF CONDUITS” (priority 2016, published 2019).

Structures are written as SMILES.

Consider `CCN(CC)CC(=O)Nc1c(C)cccc1C` [Lidocaine], for which the “alteration of fertility levels” value (post administration) is “not reported”. Besides, the safety entry (upon injection into uterine cavity or into peritoneal cavity) is recorded as “highly safe”.
